Here are results for one compound from patent publication US11738095B2, “Cyanine-containing compounds for cancer imaging and treatment” (Emory University, priority 2007, dated 2023).

The conditions of data set [1]: FDA approved dye; cited from earlier work.
How the values of data set [2] were obtained:
Mice were injected with 20 μg/Kg of IR783 and IR780 (which was 100× of the imaging dose which was 0.2 μg/Kg) and results were compared for a 28 day period. […] Zero grams means the mouse died. ICG is a FDA approved dye used for several diagnostic purposes. ICG is considered to be nontoxic. ICG is used here as a measure of the toxicity of the tested compounds.
Toxicity test of dye based on body weight gained during the treatment period from 0 to 14 days.

Where two headings read alike, the source gives them in different places.

Turning to `CC1(C)C(/C=C/C=C/C=C/C=C2\N(CCCCS(=O)(=O)[O-])c3ccc4ccccc4c3C2(C)C)=[N+](CCCCS(=O)(=O)[O-])c2ccc3ccccc3c21.[Na+]` [ICG, reference compound], in data set [1], the “toxicity (general reputation)” value is given as “nontoxic”. The body weight in data set [2] (dose 1X (imaging dose 0.2 μg/Kg), 0 day) is 20.43 g; in data set [2] (dose 1X, 1 day) it was 20.49 g; in data set [2] (dose 1X, 2 day), 20.51 g; in data set [2] (dose 1X, 3 day) it was 21.01 g; in data set [2] (dose 1X, 4 day) it was 21.43 g; in data set [2] (dose 1X, 5 day), 22.00 g. Further, the body weight in data set [2] (dose 1X, 6 day) is given as 22.34 g; in data set [2] (dose 1X, 7 day), 22.96 g; in data set [2] (dose 1X, 14 day) it was 23.87 g; in data set [2] (dose 1X, 28 day) it was 25.00 g.
